Source: patent US20240050447A1 (Propella Therapeutics, Inc., priority 2020, published 2024)
Where “and” joins values, the source holds several entries; their conditions need not be identical. Equal values may be shown once. Read-outs that look alike come from different tables or passages of the source. One block for each molecule: values may come before it.

Columns and labels:
in vivo [1] = settings: male, rat, plasma
[2] = PK of single IM abiraterone decanoate (and oral abiraterone acetate) in chemically castrated monkeys (Example 10); settings: abiraterone in plasma
in vivo [3] = settings: Beagle, dog; for half-life: iv
in vivo [4] = settings: male, cynomolgus monkey, plasma
in vivo [5] = settings: male, beagle, dog, plasma; for AUC(0-inf): dogs
[6] = dogs (N=3); Group 2: IM 77 mg/kg abiraterone isocaproate, 158 mg/ml in 90% corn oil/10% benzyl alcohol; plasma analyte = label; mean
[7] = male, rat, in vivo, im
[8] = dog, in vivo
[9] = PK modelling and deconvolution of abiraterone plasma profiles, rats (Example 7D)
[10] = Allometric scaling and prediction of plasma profile of abiraterone in man (Example 7D)
[11] = Plasma PK in rats after IM injection of abiraterone or abiraterone acetate formulations (Example 5A); settings: male, rat, group mean
in vivo [12] = settings: rat, plasma, intramuscular, 90 mg/kg
[13] = human
[14] = PK modelling and deconvolution of abiraterone plasma profiles, monkeys (Example 7D)
in vivo [15] = settings: monkey, plasma, intramuscular, 90 mg/kg
in vivo [16] = settings: dog, plasma, intramuscular
[17] = PK modelling and deconvolution of abiraterone plasma profiles, dogs (Example 7D)
[18] = single IM 10 mg/kg, Geometric Mean (N=3)
[19] = single IM 10 mg/kg, Median (N=3)
[20] = single IM 10 mg/kg, individual animals
[21] = single IM 30 mg/kg, Geometric Mean (N=3)
[22] = single IM 30 mg/kg, Median (N=3)
[23] = single IM 30 mg/kg, individual animals
[24] = single IM 100 mg/kg, Mean (N=3)
[25] = single IM 100 mg/kg, Median (N=3)
[26] = single IM 100 mg/kg, individual animals
[27] = Group 3: IM abiraterone suspension in castor oil (62.5 mg/ml)
[28] = Group 4: IM abiraterone suspension, sodium phosphate buffer, 0.1% Tween (62.5 mg/ml)

half-life (in vivo [1]; im, 90 mg/kg): 792 h
half-life (in vivo [1]; iv, […]): 3.2 h
AUC0-t [2, 18]: 196 ng·days/mL
AUC0-∞ [2, 18]: 209 ng·days/mL
AUC0-t ([2]; single IM 10 mg/kg, Max (N=3)): 225 ng·days/mL
AUC0-∞ ([2]; single IM 10 mg/kg, Max (N=3)): 236 ng·days/mL
AUC0-t ([2]; single IM 10 mg/kg, Mean (N=3)): 198 ng·days/mL
AUC0-∞ ([2]; single IM 10 mg/kg, Mean (N=3)): 212 ng·days/mL
AUC0-t [2, 19]: 212 ng·days/mL
AUC0-∞ [2, 19]: 235 ng·days/mL
AUC0-t ([2]; single IM 10 mg/kg, Min (N=3)): 157 ng·days/mL
AUC0-∞ ([2]; single IM 10 mg/kg, Min (N=3)): 166 ng·days/mL
AUC0-t [2, 21]: 330 ng·days/mL
AUC0-∞ [2, 21]: 347 ng·days/mL
AUC0-t ([2]; single IM 30 mg/kg, Max (N=3)): 449 ng·days/mL
AUC0-∞ ([2]; single IM 30 mg/kg, Max (N=3)): 492 ng·days/mL
AUC0-t ([2]; single IM 30 mg/kg, Mean (N=3)): 338 ng·days/mL
AUC0-∞ ([2]; single IM 30 mg/kg, Mean (N=3)): 358 ng·days/mL
AUC0-t [2, 22]: 285 ng·days/mL
AUC0-∞ [2, 22]: 293 ng·days/mL
AUC0-t ([2]; single IM 30 mg/kg, Min (N=3)): 281 ng·days/mL
AUC0-∞ ([2]; single IM 30 mg/kg, Min (N=3)): 290 ng·days/mL
AUC0-t ([2]; single IM 100 mg/kg, Max (N=3)): 1760 ng·days/mL
AUC0-∞ ([2]; single IM 100 mg/kg, Max (N=3)): 1770 ng·days/mL
AUC0-t [2, 24]: 1410 ng·days/mL
AUC0-∞ [2, 24]: 1430 ng·days/mL
AUC0-t [2, 25]: 1270 ng·days/mL
AUC0-∞ [2, 25]: 1330 ng·days/mL
AUC0-t ([2]; single IM 100 mg/kg, Min (N=3)): 1200 ng·days/mL
AUC0-∞ ([2]; single IM 100 mg/kg, Min (N=3)): 1200 ng·days/mL
Tmax (in vivo [3]; im, mean decanoate Tmax, range between the two IM formulations): 2.64 to 6.24 h
half-life (in vivo [3]; […]): 0.86 h
half-life (in vivo [4]; im, 90 mg/kg): 240 h
half-life (in vivo [4]; iv, […]): 2.27 h
CL/F (in vivo [5]; im, 87 mg/kg): 207 mL/min/kg
Vd/F (in vivo [5]; im, 87 mg/kg): 2850 L/kg
half-life (in vivo [5]; im, 87 mg/kg): 161 h
SMILES: CCCCCCCCCC(=O)O[C@H]1CC[C@@]2(C)C(=CC[C@@H]3[C@@H]2CC[C@]2(C)C(c4cccnc4)=CC[C@@H]32)C1 [Abiraterone Decanoate, Abiraterone decanoate]
AUC0-t [2, 20]: 225 ng·days/mL and 157 ng·days/mL and 212 ng·days/mL
AUC0-∞ [2, 20]: 235 ng·days/mL and 166 ng·days/mL and 236 ng·days/mL
AUC0-t [2, 23]: 281 ng·days/mL and 285 ng·days/mL and 449 ng·days/mL
AUC0-∞ [2, 23]: 293 ng·days/mL and 290 ng·days/mL and 492 ng·days/mL
AUC0-t [2, 26]: 1270 ng·days/mL and 1200 ng·days/mL and 1760 ng·days/mL
AUC0-∞ [2, 26]: 1330 ng·days/mL and 1200 ng·days/mL and 1770 ng·days/mL

SMILES: CC(C)CCC(=O)O[C@H]1CC[C@@]2(C)C(=CC[C@@H]3[C@@H]2CC[C@]2(C)C(c4cccnc4)=CC[C@@H]32)C1 [Abiraterone Isocaproate, Abiraterone isocaproate]
Cmax [6]: 106 ng/mL

SMILES: CC(=O)O[C@H]1CC[C@@]2(C)C(=CC[C@@H]3[C@@H]2CC[C@]2(C)C(c4cccnc4)=CC[C@@H]32)C1 [Abiraterone acetate, (3β)-17-(3-Pyridyl)androsta-5, acetate]
Tmax [7]: 8.00 h
AUClast ([7]; 35 mg/kg): 934 ng·h/mL
Cmax ([7]; 35 mg/kg): 21.6 ng/mL
Tmax ([7]; 35 mg/kg): 39.2 h
injection site tolerability [8]: irritating to the dogs at the injection site
AUCINF ([8]; iv, 10 mg/kg): 5990 ng·h/mL
AUCINF/Dose ([8]; iv, 10 mg/kg): 599
AUClast ([8]; iv, 10 mg/kg): 5920 ng·h/mL
AUClast/Dose ([8]; iv, 10 mg/kg): 592
time out to which blood levels were measurable ([8]; male): 504 h

SMILES: C[C@]12CC[C@H](O)CC1=CC[C@@H]1[C@@H]2CC[C@]2(C)C(c3cccnc3)=CC[C@@H]12 [Abiraterone, (3β)-17-(pyridin-3-yl)androsta-5,16-dien-3-ol]
F ([9]; Rats, IM bioavailability of abiraterone from abiraterone decanoate, deconvolution): 19%
Vd ([9]; rat, plasma, iv, […]): 22.3 L/kg
clearance ([9]; rat, plasma, iv, […]): 190 mL/min/kg
Vss, predicted in man ([10]; allometric scaling from rats, dogs and monkeys): 437 L
K01, predicted in man ([10]; from deconvolution of animal IM/IV data): 0.00213 h⁻¹
F, predicted in man ([10]; value of dogs used): 56%
Cmax [11, 27]: 13.3 ng/mL
Cmax [11, 28]: 1.43 ng/mL
Tmax [11, 27]: 2.6 h
Tmax [11, 28]: 1.67 h
half-life (in vivo [12]): 325 h
bioavailability (in vivo [3]; im, absolute bioavailability for abiraterone): 72%
AUC(0-inf) (in vivo [3]; im, mean abiraterone AUCINF after IM, corrected for dose and time units): 104 ng·h/mL
half-life (in vivo [3]; 1 mg/kg, mean t1/2): 2.1 h
AUCINF [6]: 275 ng·days/mL
AUClast [6]: 266 ng·days/mL
t1/2 [6]: 223 h
t1/2 (absorption half-life), predicted in man [13]: 325 h
F ([14]; Monkeys, IM bioavailability of abiraterone from abiraterone decanoate, deconvolution): 14%
Vd ([14]; monkey, plasma, iv, […]): 5.73 L/kg
clearance ([14]; monkey, plasma, iv, […]): 43 mL/min/kg
half-life (in vivo [15]): 325 h
half-life (in vivo [16]): 319 h
AUC(0-inf) (in vivo [5]; im, 60 mg/kg, mean abiraterone AUCINF after IM, corrected for dose and time units, 60 mg/kg IM administration (abiraterone decanoate)): 70.4 ng·h/mL
AUC(0-inf) (in vivo [5]; im, 60 mg/kg, mean abiraterone AUCINF after IM, corrected for dose and time units, 60 mg/kg IM administration of abiraterone isocaproate): 114 ng·h/mL
bioavailability (in vivo [5]; im, 77 mg/kg): 87%
half-life (in vivo [5]; im, 77 mg/kg, t1/2, dogs (N=3), Group 2: IM 77 mg/kg abiraterone isocaproate, 158 mg/ml in 90% corn oil/10% benzyl alcohol, plasma analyte = label, mean): 223 h
bioavailability (in vivo [5]; im, 87 mg/kg): 42%
AUC(0-inf) (in vivo [5]; iv, 0.78 mg/kg, mean abiraterone AUCINF after IV, corrected for dose, IV abiraterone isocaproate (0.78 mg/kg as abiraterone)): 131 ng·h/mL
F ([17]; Dogs, IM bioavailability of abiraterone from abiraterone decanoate, deconvolution): 56%
Vd ([17]; dog, plasma, iv, […]): 14.2 L/kg
clearance ([17]; dog, plasma, iv, […]): 108 mL/min/kg
